Test results from article PMC6240093, “Identification of Two Mannosyltransferases Contributing to Biosynthesis of the Fungal-type Galactomannan α-Core-Mannan Structure in Aspergillus fumigatus” (Scientific Reports, 2018).

Biological target: T1, CmsA (Aspergillus fumigatus, UniProt B0Y2F5)
T1 construct: gene AFUB_051270; catalytic domain residues 27-397 (N-terminal TM removed)
Experiment: HPLC (UV300) of product with p-nitrophenyl alpha-D-mannopyranoside as acceptor
Format: biochemical
Settings: donor 1.5 mM; p-nitrophenyl alpha-D-mannopyranoside 1.5 mM; 1.5 mM MnCl2; pH 7.0; 37 °C

T1 sequence (B0Y2F5 entry or part of it): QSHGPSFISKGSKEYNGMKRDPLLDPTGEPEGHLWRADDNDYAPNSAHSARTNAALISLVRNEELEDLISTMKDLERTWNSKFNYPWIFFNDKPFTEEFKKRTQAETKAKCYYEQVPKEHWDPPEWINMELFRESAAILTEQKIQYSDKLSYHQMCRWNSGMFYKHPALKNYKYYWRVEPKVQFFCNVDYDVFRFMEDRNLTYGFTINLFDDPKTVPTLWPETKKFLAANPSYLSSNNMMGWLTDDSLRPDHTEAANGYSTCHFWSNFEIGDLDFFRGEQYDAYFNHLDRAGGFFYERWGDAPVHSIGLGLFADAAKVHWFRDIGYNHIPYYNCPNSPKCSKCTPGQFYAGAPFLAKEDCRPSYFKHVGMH

Nc1nc2c(ncn2[C@@H]2O[C@H](COP(=O)(O)OP(=O)(O)O[C@H]3O[C@H](CO)[C@@H](O)[C@H](O)[C@@H]3O)[C@@H](O)[C@H]2O)c(=O)[nH]1 [GDP-Man]
HPLC (UV300) of product with p-nitrophenyl alpha-D-mannopyranoside as acceptor: CmsA has GDP-Man: α-mannoside α-1,2-mannosyltransferase activity in vitro
